# Assay results reported in patent US20150105429A1, “BENZYL SULFONAMIDE DERIVATIVES AS RORC MODULATORS” (Genentech, Inc., priority 2011, published 2015).
# Biological target: T1, RORc ligand binding domain (Homo sapiens, UniProt P51449)
# T1 construct: host or cells: E. coli
# T1 sequence (P51449 269-508 limits assumed): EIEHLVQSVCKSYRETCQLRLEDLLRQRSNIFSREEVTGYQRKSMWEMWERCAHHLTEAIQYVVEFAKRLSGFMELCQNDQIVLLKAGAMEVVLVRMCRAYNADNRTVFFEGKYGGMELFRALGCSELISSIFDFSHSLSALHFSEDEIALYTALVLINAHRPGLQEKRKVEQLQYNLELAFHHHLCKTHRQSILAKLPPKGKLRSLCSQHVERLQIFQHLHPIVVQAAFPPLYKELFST
# Experiment: In Vitro RORc Ligand Binding Assay
# Conditions: radioligand 25-[3H]hydroxycholesterol 6 nM; 0.6 ug/mL RORc receptor; 3 h at 25° C.; read-out: IC50 values (micromolar) for RORc affinity
# Experimental: This assay was used to determine a compound's potency in inhibiting activity of RORc by determining, Kiapp, IC50, or percent inhibition values.
# On day of the assay, 100 uL of 0.05% CHAPS (in deionized H2O) was added to all wells of the GFB Unifilter plate and allowed soak for 1 h. A wash buffer of 50 mM HEPES (pH 7.4), 150 mM NaCl, and 5 mM MgCl2 was prepared to wash the filter plate. To prepare an assay buffer, BSA was added to the wash buffer to reach 0.01% and DTT was added to reach 1 mM.
# The 20× compound stocks were diluted in DMSO with Assay Buffer 4-fold to reach 5× the final test concentration in 25% DMSO (10 uL compound+30 uL Assay Buffer). Solutions were mixed by aspiration several times with a pipette set on 50 uL volume. For the assay, 10 uL of 5× compound stock solutions in 25% DMSO were added to the assay plate in duplicate.
# For two point screening, 10 mM stock compound solutions were diluted in DMSO to obtain 200 uM (20× the high test concentration) and then diluted 10-fold further to reach 20 uM (20× the low test concentration). The 20× stocks were diluted 4-fold with Assay Buffer (10 uL compound+30 uL Assay Buffer) to reach 5× the test concentrations (50 uM and 5 uM) and 10 uL were added to two assay plates for the duplicate wells. With each concentration tested on 2 plates, each set of 80 compounds used 4 assay plates (1 uM and 10 uM, with n=2).
# For 25-hydroxycholesterol in 25% DMSO/75% Assay Buffer; 10 uL per well was used for NSB samples. Wells for Total Binding and No Receptor sample determination contained 10 uL of 25% DMSO/75% Assay Buffer per well.
# Radioligand (25-[^3H]hydroxycholesterol) Preparation
# Added 20 uL to all wells to reach 6 nM final in the assay.
# Stock receptor solution was diluted in assay buffer to obtain 1.5 ug/mL in Assay Buffer. 20 uL was added to all wells. For No R samples, 20 uL Assay Buffer was substituted for receptor solution.
# Assay plates were 96-well polypropylene V-bottom plates. 10 uL of 5× compound in 25% DMSO/75% Assay Buffer was added to Test wells. 10 uL of 25% DMSO/75% Assay Buffer was added to Total Binding or No Receptor wells. 10 uL of 5 uM 25-hydroxycholesterol in 25% DMSO/75% Assay Buffer was added to NSB wells. […] 20 uL of 1.5 ug/mL RORc receptor was added to wells (or 40 uL Assay Buffer to No R wells). Following addition to the wells, the plates were incubated 3 h at 25° C.
# Using a Packard Filtermate Harvester, the filter plates were washed 4 times following transfer of the incubated samples. Plates were dry-filtered completely (2 h at 50° C. or overnight at room temperature). 50 uL Microscint 0 was added to all wells and read on Topcount protocol Inverted.
# Final concentrations were as follows: 50 mM HEPES buffer (pH 7.4); 150 mM NaCl; 1 mM DTT; 5 mM MgCl2; 0.01% BSA; 5% DMSO; 0.6 ug/mL RORc receptor; 6 nM 25-[^3H]hydroxycholesterol. For NSB wells, 1 uM 25-hydroxycholesterol was also present.
row,Compound,IC50 [µM]
1,"CC(C)CN(Cc1ccc(-c2cccc(S(C)(=O)=O)c2)cc1)S(=O)(=O)Cc1ccccc1 [Compound 1, N-Isobutyl-N-(3′-methanesulfonyl-biphenyl-4-ylmethyl)-C-phenyl-methanesulfonamide]",0.365
2,"CS(=O)(=O)c1cccc(-c2ccc(CN(Cc3ccc(F)cc3Cl)S(=O)(=O)Cc3ccccc3)cc2)c1 [Compound 2, N-(2-Chloro-4-fluoro-benzyl)-N-(3′-methanesulfonyl-biphenyl-4-ylmethyl)-C-phenyl-methanesulfonamide]",2.8
3,"Cc1nn(C)c(C)c1-c1ccc(CN(CC(C)C)S(=O)(=O)Cc2ccccc2)cc1 [Compound 3, N-Isobutyl-C-phenyl-N-[4-(1,3,5-trimethyl-1H-pyrazol-4-yl)-benzyl]-methanesulfonamide]",1.7
4,"CC(C)CN(Cc1ccc(-c2ccc(C(=O)N(C)C)cc2)cc1)S(=O)(=O)Cc1ccccc1 [Compound 5, 4′-[(Isobutyl-phenylmethanesulfonyl-amino)-methyl]-biphenyl-4-carboxylic acid dimethylamide]",0.963
5,"CNS(=O)(=O)c1ccc(-c2ccc(CN(CC(C)C)S(=O)(=O)Cc3ccccc3)cc2)cc1 [Compound 9, 4′-[(Isobutyl-phenylmethanesulfonyl-amino)-methyl]-biphenyl-4-sulfonic acid methylamide]",0.065
6,"Cc1n[nH]c(C)c1-c1ccc(CN(CC(C)C)S(=O)(=O)Cc2ccccc2)cc1 [Compound 10, N-[4-(3,5-Dimethyl-1H-pyrazol-4-yl)-benzyl]-N-isobutyl-C-phenyl-methanesulfonamide]",2.8
7,"CC(C)CN([C@H](C)c1ccc(-c2ccc(C(N)=O)cc2)cc1)S(=O)(=O)Cc1ccccc1 [Compound 14, 4′-[(R)-1-(Isobutyl-phenylmethanesulfonyl-amino)-ethyl]-biphenyl-4-carboxylic acid amide]",0.128
8,"CC(C)CN([C@H](C)c1ccc(-c2ccc(NS(C)(=O)=O)cc2)cc1)S(=O)(=O)Cc1ccccc1 [Compound 15, N-Isobutyl-N-[(R)-1-(4′-methanesulfonylamino-biphenyl-4-yl)-ethyl]-C-phenyl-methanesulfonamide]",0.696
9,"CC(C)CN([C@@H](C)c1ccc(-c2ccc(C(N)=O)cc2)cc1)S(=O)(=O)Cc1ccccc1 [Compound 17, 4′-[(S)-1-(Isobutyl-phenylmethanesulfonyl-amino)-ethyl]-biphenyl-4-carboxylic acid amide]",0.154
10,"CC(C)CN([C@@H](C)c1ccc(-c2ccc(S(C)(=O)=O)cc2)cc1)S(=O)(=O)Cc1ccccc1 [Compound 18, N-Isobutyl-N-[(S)-1-(4′-methanesulfonyl-biphenyl-4-yl)-ethyl]-C-phenyl-methanesulfonamide]",0.168
11,"CC(C)CN([C@@H](C)c1ccc(-c2cccc(S(C)(=O)=O)c2)cc1)S(=O)(=O)Cc1ccccc1 [Compound 19, N-Isobutyl-N-[(S)-1-(3′-methanesulfonyl-biphenyl-4-yl)-ethyl]-C-phenyl-methanesulfonamide]",0.691
12,"CC(C)CN([C@@H](C)c1ccc(-c2ccc(NS(C)(=O)=O)cc2)cc1)S(=O)(=O)Cc1ccccc1 [Compound 20, N-Isobutyl-N-[(S)-1-(4′-methanesulfonylamino-biphenyl-4-yl)-ethyl]-C-phenyl-methanesulfonamide]",0.251
13,"CC(C)CN([C@H](C)c1ccc(-c2ccc(S(C)(=O)=O)cc2)cc1)S(=O)(=O)Cc1ccccc1 [Compound 21, N-Isobutyl-N-[(R)-1-(4′-methanesulfonyl-biphenyl-4-yl)-ethyl]-C-phenyl-methanesulfonamide]",2.9
14,"CC(C)CN(Cc1ccc(-c2ccc(S(C)(=O)=O)cc2)cc1F)S(=O)(=O)Cc1ccccc1 [Compound 22, N-(3-Fluoro-4′-methanesulfonyl-biphenyl-4-ylmethyl)-N-isobutyl-C-phenyl-methanesulfonamide]",0.019
15,"O=S(=O)(Cc1ccccc1)N(Cc1ccc(-c2ccncc2)cc1F)CC(F)(F)F [Compound 23, N-(2-Fluoro-4-pyridin-4-yl-benzyl)-C-phenyl-N-(2,2,2-trifluoro-ethyl)-methanesulfonamide]",0.282
